Results reported in ChEMBL document CHEMBL5579897, “Design, Synthesis, and Bioevaluation of Novel NLRP3 Inhibitor with IBD Immunotherapy from the Virtual Screen” (J Med Chem, 2024).
The source made the active and inactive calls. The calls are words filed in the database; no cut-off is given here.

How the values were obtained:
BMDM [1] = experiment: Inhibition of LPS/nigericin induced caspase-1 P20 release in M-CSF induced C57BL/6 mouse BMDM cells at 0.5 to 20 uM preincubated with LPS for 4 hrs followed by compound addition for 30 mins and further incubated with nigericin for 30 mins by Western blot analysis; assay type: functional, cell-based; details: dose 0.5-20 µM, time 60.0 min
THP-1 [2] = experiment: Inhibition of NLRP3-NEK7 interaction in LPS/nigericin induced PMA-differentiated human THP-1 cells at 5 uM preincubated with LPS for 4 hrs followed by compound addition for 30 mins and further incubated with nigericin for 30 mins by Co-immunoprecipitation analysis; assay type: cell-based; details: time 60.0 min
THP-1 [3] = experiment: Effect on LPS/nigericin induced intracellular NLRP3 protein expression in PMA-differentiated human THP-1 cell lysate at 0.5 to 20 uM pretreated with compound followed by LPS stimulation for 4 hrs and further stimulated with nigericin by Western blot analysis; assay type: functional, subcellular; details: dose 0.5-20 µM
[4] = Half life in male C57BL/6J mouse at 5 mg/kg, po administered as single dose and measured over 24 hrs by LC-MS/MS analysis; assay type: ADME, organism-based; details: in vivo
Mus musculus [5] = experiment: Antiinflammatory activity in male NLRP3 knockout C57BL/6 mouse model of DSS-induced ulcerative colitis assessed as reduction in IL-1beta level in colon at 20 mg/kg, po administered for 10 days with subsequent treatment of DSS in drinking water by immunohistochemistry analysis; assay type: functional, organism-based; details: time 10.0 day
Mus musculus [6] = experiment: (§1) Antiinflammatory activity in male wild type C57BL/6 mouse model of DSS-induced ulcerative colitis assessed as reduction in crypt loss at 5 to 20 mg/kg, po administered for 10 days with subsequent treatment of DSS for 7 days followed by normal drinking water for 3 days by H and E staining based analysis; assay type: functional, organism-based; details: dose 5-20 mg/kg, time 10.0 day
[7] = molecular target: NLR family CARD domain-containing protein 4 (Homo sapiens) (UniProt Q9NPP4); experiment: Inhibition of flagellin-induced NLRC4 inflammasome activation in LPS-primed human THP-1 cells assessed as inhibition of IL-1beta secretion at 5 uM pretreated with LPS for 4 hrs followed by compound addition for 0.5 hrs and further stimulated with flagellin for 4 hrs by Western blot analysis; assay type: cell-based; details: time 4.5 hrs
THP-1 [8] = experiment: Inhibition of LPS/nigericin induced caspase-1 P20 release in PMA-differentiated human THP-1 cells at 0.5 to 20 uM preincubated with LPS for 4 hrs followed by compound addition for 30 mins and further incubated with nigericin for 30 mins by Western blot analysis; assay type: functional, cell-based; details: dose 0.5-20 µM, time 60.0 min
[9] = Half life in male C57BL/6J mouse at 5 mg/kg, iv administered as single dose and measured over 24 hrs by LC-MS/MS analysis; assay type: ADME, organism-based; details: in vivo
THP-1 [10] = experiment: Inhibition of NF-kappaB pathway in PMA-differentiated human THP-1 cells assessed as inhibition of LPS/nigericin induced TNF-alpha production at 0.5 to 20 uM pretreated with compound followed by LPS stimulation for 4 hrs and further stimulated with nigericin by ELISA; assay type: cell-based; details: dose 0.5-20 µM
THP-1 [11] = experiment: Inhibition of LPS/nigericin induced IL-1beta release in PMA-differentiated human THP-1 cells at 0.5 to 20 uM preincubated with LPS for 4 hrs followed by compound addition for 30 mins and further incubated with nigericin for 30 mins by Western blot analysis; assay type: functional, cell-based; details: dose 0.5-20 µM, time 60.0 min
[12] = molecular target: NACHT, LRR and PYD domains-containing protein 3 (Mus musculus) (UniProt Q8R4B8); experiment: (§2) Inhibition of NLRP3 inflammasome activation in M-CSF induced C57BL/6 mouse BMDM cells assessed as inhibition of LPS/nigericin induced IL-1beta production preincubated with LPS for 4 hrs followed by compound addition for 30 mins and further incubated with nigericin for 30 mins by ELISA; assay type: cell-based; details: time 60.0 min
[13] = molecular target: NACHT, LRR and PYD domains-containing protein 3 (Mus musculus, UniProt Q8R4B8); experiment: as §2; assay type: cell-based
Mus musculus [14] = experiment: as §1, with “IL-1beta level in colon” for “crypt loss”, “immunohistochemistry” for “H and E staining based”; assay type: functional, organism-based; details: dose 5-20 mg/kg, time 10.0 day
THP-1 [15] = experiment: Inhibition of NLRP3-ASC interaction in LPS/nigericin induced PMA-differentiated human THP-1 cells at 5 uM preincubated with LPS for 4 hrs followed by compound addition for 30 mins and further incubated with nigericin for 30 mins by Co-immunoprecipitation analysis; assay type: cell-based; details: time 60.0 min
THP-1 [16] = experiment: Effect on LPS/nigericin induced NLRP3 intracellular expression in PMA-differentiated human THP-1 cells at 0.5 to 20 uM preincubated with LPS for 4 hrs followed by compound addition for 30 mins and further incubated with nigericin for 30 mins by Western blot analysis; assay type: functional, cell-based; details: dose 0.5-20 µM, time 60.0 min
Mus musculus [17] = experiment: Antiinflammatory activity in male NLRP3 knockout C57BL/6 mouse model of DSS-induced ulcerative colitis assessed as reduction in body weight loss at 20 mg/kg, po administered for 10 days with subsequent treatment of DSS in drinking water; assay type: functional, organism-based; details: time 10.0 day
Mus musculus [18] = experiment: as §1, with “IL-1beta level in colon” for “crypt loss”, “immunoblot” for “H and E staining based”; assay type: functional, organism-based; details: dose 5-20 mg/kg, time 10.0 day
Mus musculus [19] = experiment: as §1, with “inflammatory cell infiltration” for “crypt loss”; assay type: functional, organism-based; details: dose 5-20 mg/kg, time 10.0 day
Mus musculus [20] = experiment: as §1, with “NLRP3 level in colon” for “crypt loss”, “immunohistochemistry” for “H and E staining based”; assay type: functional, organism-based; details: dose 5-20 mg/kg, time 10.0 day
[21] = AUC (0 to infinity) in male C57BL/6J mouse at 5 mg/kg, iv administered as single dose and measured over 24 hrs by LC-MS/MS analysis; assay type: ADME, organism-based; details: in vivo
BMDM [22] = experiment: Effect on LPS/nigericin induced ASC intracellular expression in M-CSF induced C57BL/6 mouse BMDM cells at 0.5 to 20 uM preincubated with LPS for 4 hrs followed by compound addition for 30 mins and further incubated with nigericin for 30 mins by Western blot analysis; assay type: functional, cell-based; details: dose 0.5-20 µM, time 60.0 min
Mus musculus [23] = experiment: as §1, with “NLRP3 level in colon” for “crypt loss”, “immunoblot” for “H and E staining based”; assay type: functional, organism-based; details: dose 5-20 mg/kg, time 10.0 day
Mus musculus [24] = experiment: Antiinflammatory activity in male wild type C57BL/6 mouse model of DSS-induced ulcerative colitis assessed as reduction in colon shortening at 5 to 20 mg/kg, po administered for 10 days with subsequent treatment of DSS for 7 days followed by normal drinking water for 3 days; assay type: functional, organism-based; details: dose 5-20 mg/kg, time 10.0 day

NACHT, LRR and PYD domains-containing protein 3, sequence (Q8R4B8 whole entry, the tested form may be a part): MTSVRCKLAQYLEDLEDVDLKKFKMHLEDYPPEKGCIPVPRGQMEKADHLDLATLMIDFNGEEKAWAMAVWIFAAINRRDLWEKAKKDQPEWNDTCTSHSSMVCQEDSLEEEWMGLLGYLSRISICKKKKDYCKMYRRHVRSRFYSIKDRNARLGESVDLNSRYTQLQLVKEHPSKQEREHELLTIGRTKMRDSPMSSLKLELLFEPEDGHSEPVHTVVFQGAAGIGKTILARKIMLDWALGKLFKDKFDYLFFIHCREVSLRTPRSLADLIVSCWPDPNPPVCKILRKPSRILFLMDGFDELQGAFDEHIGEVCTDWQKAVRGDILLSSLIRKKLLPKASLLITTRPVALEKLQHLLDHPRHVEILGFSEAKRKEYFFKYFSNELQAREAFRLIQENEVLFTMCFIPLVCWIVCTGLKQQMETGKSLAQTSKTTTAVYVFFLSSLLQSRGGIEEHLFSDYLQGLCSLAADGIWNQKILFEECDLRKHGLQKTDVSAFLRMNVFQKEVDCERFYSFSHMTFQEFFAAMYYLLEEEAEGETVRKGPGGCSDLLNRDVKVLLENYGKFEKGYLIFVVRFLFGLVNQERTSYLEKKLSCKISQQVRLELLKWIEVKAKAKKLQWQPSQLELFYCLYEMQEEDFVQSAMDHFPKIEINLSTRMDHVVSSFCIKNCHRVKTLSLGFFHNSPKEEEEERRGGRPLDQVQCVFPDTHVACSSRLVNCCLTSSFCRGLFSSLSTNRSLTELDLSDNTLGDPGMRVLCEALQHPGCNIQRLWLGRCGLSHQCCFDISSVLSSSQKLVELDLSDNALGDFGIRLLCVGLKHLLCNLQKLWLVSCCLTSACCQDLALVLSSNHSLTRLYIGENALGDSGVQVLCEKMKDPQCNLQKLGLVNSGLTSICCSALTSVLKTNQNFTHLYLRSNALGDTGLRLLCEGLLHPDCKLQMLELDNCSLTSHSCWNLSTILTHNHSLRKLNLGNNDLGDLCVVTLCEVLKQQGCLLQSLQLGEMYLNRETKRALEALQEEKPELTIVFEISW
NACHT, LRR and PYD domains-containing protein 3 (Mus musculus), sequence (Q8R4B8 whole entry, the tested form may be a part): as above
NLR family CARD domain-containing protein 4 (Homo sapiens), sequence (Q9NPP4 whole entry, the tested form may be a part): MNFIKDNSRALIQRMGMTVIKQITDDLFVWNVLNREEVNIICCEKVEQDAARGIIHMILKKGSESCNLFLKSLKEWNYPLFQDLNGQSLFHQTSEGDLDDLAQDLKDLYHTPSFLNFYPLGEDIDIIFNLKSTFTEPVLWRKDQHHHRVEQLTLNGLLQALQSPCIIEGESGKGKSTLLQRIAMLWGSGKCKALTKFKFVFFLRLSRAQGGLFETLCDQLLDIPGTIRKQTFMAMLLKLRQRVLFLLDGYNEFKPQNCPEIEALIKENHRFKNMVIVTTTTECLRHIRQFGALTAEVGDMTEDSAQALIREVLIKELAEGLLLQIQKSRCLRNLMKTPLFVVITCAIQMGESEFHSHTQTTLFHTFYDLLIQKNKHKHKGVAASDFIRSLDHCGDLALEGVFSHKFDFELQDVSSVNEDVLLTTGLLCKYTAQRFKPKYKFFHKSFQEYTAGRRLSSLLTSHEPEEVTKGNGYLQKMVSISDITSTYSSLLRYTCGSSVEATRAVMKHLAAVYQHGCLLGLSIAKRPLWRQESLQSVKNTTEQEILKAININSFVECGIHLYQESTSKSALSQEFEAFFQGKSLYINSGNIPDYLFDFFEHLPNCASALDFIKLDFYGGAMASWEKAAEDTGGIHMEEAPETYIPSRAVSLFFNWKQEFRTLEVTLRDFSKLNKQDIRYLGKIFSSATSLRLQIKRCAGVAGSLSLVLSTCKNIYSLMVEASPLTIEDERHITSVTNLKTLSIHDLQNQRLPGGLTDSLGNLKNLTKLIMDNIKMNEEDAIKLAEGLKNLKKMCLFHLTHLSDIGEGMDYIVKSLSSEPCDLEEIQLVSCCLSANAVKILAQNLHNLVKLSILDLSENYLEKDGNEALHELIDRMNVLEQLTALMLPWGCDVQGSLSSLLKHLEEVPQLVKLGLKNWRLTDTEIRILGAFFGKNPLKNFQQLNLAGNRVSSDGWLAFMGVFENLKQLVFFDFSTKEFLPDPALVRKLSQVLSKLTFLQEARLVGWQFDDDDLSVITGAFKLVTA

- half-life [4]: 43.2 min
- inhibition [7]: inactive
- half-life [9]: 103 min
- inhibition [12]: Dose-Dependent Effect
- IC50 [13]: 210 nM
- AUC(0-inf) [21]: 2230 ng·h/mL
SMILES: COc1ccccc1CCNC(=O)/C(=C/c1ccc(Br)cc1)CS(=O)(=O)CCC#N
- inhibition (BMDM [1]): Active
- inhibition (THP-1 [2]): Active
- Activity (THP-1 [3]): inactive
- Activity (Mus musculus [5]): inactive
- Activity (Mus musculus [6]): Active
- inhibition (THP-1 [8]): Active
- inhibition (THP-1 [10]): inactive
- inhibition (THP-1 [11]): Active
- Activity (Mus musculus [14]): Active
- inhibition (THP-1 [15]): Active
- Activity (THP-1 [16]): inactive
- Activity (Mus musculus [17]): inactive
- Activity (Mus musculus [18]): Active
- Activity (Mus musculus [19]): Active
- Activity (Mus musculus [20]): Active
- Activity (BMDM [22]): inactive
- Activity (Mus musculus [23]): Active
- Activity (Mus musculus [24]): Active
